Where two headings read alike, the source gives them in different places.
Target: Cruzain (Trypanosoma cruzi, UniProt P25779)
Assay: Cysteine protease inhibition, progress curve method, cruzain
Format: biochemical
Settings: 4 uM Ac-Lys-Glu-Lys-Leu-Arg-AMC, 100 mM Na acetate pH 5.5, 5 mM cysteine
Method: Standard assay conditions for the determination of kinetic constants used 10 uM fluorogenic peptide substrate, Cbz-Phe-Arg-AMC for the cysteine proteases from Leishmania spp and Schistosoma Mansoni, Cbz-Leu-Arg-AMC for the cysteine proteases from Plasmodium falciparum and Trypanosoma brucei rhodesiensi, and Ac-Lys-Glu-Lys-Leu-Arg-AMC (4 uM final substrate concentration) for the cysteine protease from Trypoanosoma cruzi, and were determined in 100 mM Na acetate at pH 5.5 containing 5 mM cysteine. Stock substrate solutions were prepared at concentrations of […] in DMSO with 10 uM (4 uM for Ac-Lys-Glu-Lys-Leu-Arg-AMC) final substrate concentration in the assays. The final DMSO concentration was 2% and the final volume was 100 uL. All assays were conducted at ambient temperature. Product progress curves were generated over 20 to 30 minutes following formation of AMC product.
Potential inhibitors were evaluated using the progress curve method. Assays were carried out in the presence of variable concentrations of test compound. Reactions were initiated by addition of enzyme to buffered solutions of inhibitor and substrate. Data analysis was conducted according to one of two procedures depending on the appearance of the progress curves in the presence of inhibitors. For those compounds whose progress curves were linear, apparent inhibition constants (Ki,app) were calculated according to equation 1 (Brandt et al., Biochemitsry, 1989, 28, 140):
v=VmA/[Ka(1+I/Ki,app)+A] (1)
Where v is the velocity of the reaction with maximal velocity Vm, A is the concentration of substrate with Michaelis constant of Ka, and I is the concentration of inhibitor.
[AMC]=vsst+(v0−vss)[1−exp (−kobst)]/kobs (2)
Where [AMC] is the concentration of product formed over time t, v0 is the initial reaction velocity and vss is the final steady state rate. Values for kobs were then analyzed as a linear function of inhibitor concentration to generate an apparent second order rate constant (kobs/inhibitor concentration or kobs/[I]) describing the time-dependent inhibition. A complete discussion of this kinetic treatment has been fully described (Morrison et al., Adv. Enzymol. Relat. Areas Mol. Biol., 1988, 61, 201).
Exemplary inhibition data for the compounds used in the present method collected in accordance with the above-described procedure are listed in Table I.

Chain of Cruzain (P25779 123-337): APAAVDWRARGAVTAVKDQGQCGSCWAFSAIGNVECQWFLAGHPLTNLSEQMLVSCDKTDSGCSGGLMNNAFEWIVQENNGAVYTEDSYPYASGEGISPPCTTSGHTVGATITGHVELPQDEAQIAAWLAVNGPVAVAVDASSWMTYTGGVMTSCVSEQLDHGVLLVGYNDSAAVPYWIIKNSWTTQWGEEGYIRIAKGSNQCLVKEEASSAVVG

CC(C)C[C@@H](NC(=O)c1cc(Br)c(Br)s1)C(=O)N[C@@H]1CCCN(S(=O)(=O)c2cccc[n+]2[O-])CC1=O [Example 61, 4,5-Dibromo-thiophene-2-carboxylic acid {(S)-3-methyl-1-[3-oxo-1-(1-oxy-pyridine-2-sulfonyl)-azepan-4-ylcarbamoyl]-butyl}amide]
Ki (read-out: Cruzain Ki): 40 nM

Cc1c(C(=O)N[C@H](CC(C)C)C(=O)N[C@H]2CCCN(S(=O)(=O)c3cccc[n+]3[O-])CC2=O)oc2ccc(F)cc12 [Example 192, 5-Fluoro-3-methyl-benzofuran-2-carboxylic acid {(S)-3-methyl-1-[3-oxo-1-(1-oxy-pyridine-2-sulfonyl)-azepan-4-ylcarbamoyl]-butyl}-amide]
Ki (read-out: Cruzain Ki): 14 nM

COc1ccc(S(=O)(=O)N2CCC[C@H](NC(=O)[C@H](CC(C)C)NC(=O)CNC(=O)c3ccco3)C(=O)C2)cc1 [Example 82]
Ki (read-out: Cruzain Ki): 17 nM

CC(C)C[C@@H](NC(=O)c1ccc2c(c1)OCCCO2)C(=O)N[C@@H]1CCCN(S(=O)(=O)c2cccc[n+]2[O-])CC1=O [Example 60, 3,4-Dihydro-2H-benzo[b][1,4]dioxepine-7-carboxylic acid {(S)-3-methyl-1-[3-oxo-1-(1-oxy-pyridine-2-sulfonyl)-azepan-4-ylcarbamoyl]butyl}amide]
Ki (read-out: Cruzain Ki): 9.8 nM

CC(C)CC(NC(=O)c1cc2ccccc2o1)C(=O)N[C@@H]1CCCN(S(=O)(=O)c2ccccc2C#N)CC1=O (stereo partly shown) [Example 115]
Ki (read-out: Cruzain Ki): 14 nM

CC(C)C[C@@H](NC(=O)c1cc2cc(OCCN3CCOCC3)ccc2o1)C(=O)N[C@@H]1CCCN(S(=O)(=O)c2ccccn2)CC1=O [Example 18, 5-(2-Morpholino-4-yl-ethoxy)-benzofuran-2-carboxylic acid {(S)-3-methyl-1-[3-oxo-1-(pyridine-2-sulfonyl)-azepan-4-ylcarbamoyl]-butyl}1-amide]
Ki (read-out: Cruzain Ki): 6.3 nM

CC(C)C[C@H](NC(=O)c1cc2ccccc2o1)C(=O)N[C@H]1CCCN(S(=O)(=O)c2ccccc2F)CC1=O [Example 91]
Ki (read-out: Cruzain Ki): 6.2 nM

CC(C)C[C@@H](NC(=O)c1ccc2ccccc2n1)C(=O)N[C@@H]1CCCN(S(=O)(=O)c2ccccn2)CC1=O (stereo in doubt) [Example 24, Quinoline-2-carboxylic acid {(S)-3-methyl-1-[3-oxo-1-(pyridine-2-sulfonyl)-azepan-4-ylcarbamoyl]-butyl}amide]
Ki (read-out: Cruzain Ki): 23 nM

CC(C)C[C@@H](NC(=O)c1cc2ccccc2cn1)C(=O)N[C@@H]1CCCN(S(=O)(=O)c2ccccn2)CC1=O (stereo in doubt) [Example 28, Isoquinoline-3-carboxylic acid {(S)-3-methyl-1-[3-oxo-1-(pyridine-2-sulfonyl)-azepan-4-ylcarbamoyl]-butyl}amide]
Ki (read-out: Cruzain Ki): 24 nM

CC(C)C[C@@H](NC(=O)c1cc2cc(F)c(F)cc2o1)C(=O)N[C@H]1CCCN(S(=O)(=O)c2cccc[n+]2[O-])CC1=O [Example 163, 5,6-Difluoro-benzofuran-2-carboxylic acid {(S)-3-methyl-1-[3-oxo-1-(1-oxy-pyridine-2-sulfonyl)-azepan-4-ylcarbamoyl]-butyl}amide]
Ki (read-out: Cruzain Ki): 13 nM

CC(C)C[C@H](NC(=O)c1cc2ccccc2s1)C(=O)N[C@H]1CCCN(S(=O)(=O)c2ccccc2F)CC1=O [Example 95, Benzo[b]thiophene-2-carboxylic acid-{(S)-1-[1-(2-fluoro-benzenesulfonyl)-3-oxo-azepan-4-ylcarbamoyl]-3-methyl-butyl}-amide]
Ki (read-out: Cruzain Ki): 11 nM

CC(C)C[C@H](NC(=O)c1cnc2ccccc2n1)C(=O)N[C@@H]1CCCN(S(=O)(=O)c2cccs2)CC1=O [Example 147, Quinoxaline-2-carboxylic acid-{(S)-3-methyl-1-[3-oxo-1-(thiophene-2-sulfonyl)-azepan-4-ylcarbamoyl]-butyl}-amide]
Ki (read-out: Cruzain Ki): 7.5 nM

CC(C)C[C@@H](NC(=O)c1cc2cc(OCCN3CCOCC3)ccc2o1)C(=O)N[C@@H]1CCCN(S(=O)(=O)c2ccccc2)CC1=O (single isomer, unassigned) [Example 7]
Ki (read-out: Cruzain Ki): 23 nM

CC(C)C[C@@H](NC(=O)c1cc2cc(OCCN3CCOCC3)ccc2o1)C(=O)NC1CCCN(S(=O)(=O)c2cccc[n+]2[O-])CC1=O (stereo partly drawn) [Example 56, 5-(2-Morpholin-4-yl-ethoxy)-benzofuran-2-carboxylic acid {(S)-3-methyl-1-[3-oxo-(1-oxy-pyridine2-sulfonyl)-azepan-4-ylcarbamoyl]-buty}-amide]
Ki (read-out: Cruzain Ki): 7.8 nM

Cc1ccc(C(=O)N[C@H](CC(C)C)C(=O)N[C@@H]2CCCN(S(=O)(=O)c3cccc[n+]3[O-])CC2=O)cn1 [Example 118]
Ki (read-out: Cruzain Ki): 18 nM

COc1ccc2oc(C(=O)N[C@H](CC(C)C)C(=O)N[C@@H]3CCCN(S(=O)(=O)c4cccc[n+]4[O-])CC3=O)cc2c1 [Example 53, 5-Methoxy-benzofuran-2-carboxylic acid {(S)-3-methyl-1[3-oxo-1-(1-oxy-pyridine-2-sulfonyl)-azepan-4-ylcarbamoyl]-butyl}amide]
Ki (read-out: Cruzain Ki): 10 nM

4-[2-(2-{(S)-3-Methyl-1[3-oxo-1-(pridine-2-sulfonyl)-azepan-4-ylcarbamoyl]-butylcarbamoyl}-benzofuran-5-yloxy)-ethyl]-piperazine-1-carboxylic acid tert-butyl ester [Example 22]
Ki (read-out: Cruzain Ki): 14 nM

CC(C)C[C@@H](NC(=O)c1cc2ccccc2o1)C(=O)N[C@@H]1CCCN(S(=O)(=O)c2ccccc2)CC1=O (stereo in doubt) [Example 12, Benzofuran-2-carboxylic acid [(S)-1-(1-benzenesulfonyl-3-oxo-azepan-4-ylcarbamoyl)-3-methyl-butyl]amide]
Ki (read-out: Cruzain Ki): 16 nM

CC(C)C[C@H](NC(=O)c1cc2ccccc2s1)C(=O)NC1CCCN(S(C)(=O)=O)CC1=O (stereo partly drawn) [Example 111, Benzo[b]thiophene-2-carboxylic acid-{(S)-1-(1-methanesulfonyl-3-oxo-azepan-4-ylcarbamoyl)-3-methyl-butyl]-amide]
Ki (read-out: Cruzain Ki): 18 nM

CC(C)C[C@@H](NC(=O)c1cc2ccccc2[nH]1)C(=O)N[C@@H]1CCCN(S(=O)(=O)c2ccccc2)CC1=O (stereo in doubt) [Example 11, 1H-Indole-2-carboxylic acid [(S)-1-(1-benzenesulfonyl-3-oxo-azepan-4-ylcarbamoyl)-3-methyl-butyl]amide]
Ki (read-out: Cruzain Ki): 100 nM

COc1cccc2oc(C(=O)N[C@@H](CC(C)C)C(=O)N[C@H]3CCN(S(=O)(=O)c4cccc[n+]4[O-])CCC3=O)c(C)c12 [Example 203, 4-Methoxy-3-methyl-benzofuran-2-carboxylic acid {(S)-3-methyl-1-[3-oxo-1-(1-oxy-pyridine-2-sulfonyl)-azepan-4-ylcarbamoyl]-butyl}-amide]
Ki (read-out: Cruzain Ki): 20 nM

COc1ccc(S(=O)(=O)N2CCCC(NC(=O)C(CC(C)C)NC(=O)c3cc4ccccc4o3)C(=O)C2)cc1 (stereo in doubt) [Example 74, Benzofuran-2-carboxylic acid {(S)-1-[1-(4-methoxy-benzenesulfonyl)-3-oxo-azepan-4-ylcarbamoyl]-3-methyl-butyl}-amide]
Ki (read-out: Cruzain Ki): 24 nM

CC(C)C[C@@H](NC(=O)c1cc2cc(OCCN3CCCC3)ccc2o1)C(=O)NC1CCCN(S(=O)(=O)c2ccccc2)CC1=O (single isomer, unassigned) [Example 13]
Ki (read-out: Cruzain Ki): 32 nM

Cc1c(C(=O)NC(CC(C)C)C(=O)NC2CCCN(S(=O)(=O)c3cccc[n+]3[O-])CC2=O)oc2ccc3ccccc3c12 [Example 210, 1-methyl-naphtho[2,1-b]-furan-2-carboxylic acid {(S)-3-methyl-1-[3oxo-1-(1-oxy-pyridine-2-sulfonyl)-azepan-4-ylcarbamoyl]-butyl}-amide]
Ki (Cruzain Ki nM): 6.6 nM

CC(C)C[C@@H](NC(=O)c1cc2cc(OCCN3CCOCC3)ccc2o1)C(=O)N[C@@H]1CCCN(S(=O)(=O)c2ccccn2)CC1=O (single isomer, unassigned) [Example 19]
Ki (read-out: Cruzain Ki): 2 nM

CC(C)C[C@H](NC(=O)c1ccc2ccccc2n1)C(=O)NC1CCCN(Cc2ccccc2)CC1=O (stereo partly drawn) [Example 2, Quinoline-2-carboxylic acid [(S)-1-(1-benzyl-3-oxo-azepan-4-ylcarbamoyl)-3-methyl-butyl]amide]
Ki (read-out: Cruzain Ki): 44 nM

CC(C)C[C@H](NC(=O)c1cc2ccccc2o1)C(=O)N[C@H]1CCCN(S(=O)(=O)c2cccs2)CC1=O [Example 38, Benzofuran-2-carboxylic acid {(S)-3-methyl-1-[3-oxo-1-(thiophene-2-sulfonyl)-azepan-4-ylcarbamoyl]-butyl}-amide]
Ki (read-out: Cruzain Ki): 4.5 nM

CC(C)C[C@H](NC(=O)c1ccc2c(c1)OCO2)C(=O)N[C@H]1CCCN(Cc2ccccc2)CC1=O [Example 1, benzo[1,3]dioxole-5-carboxylic acid [(S)-1-(1-benzyl-3-oxoazepan-4-ylcarbamoyl)-3-methyl-butyl]amide]
Ki (read-out: Cruzain Ki): 58 nM

From US20030044399A1, “Method of treatment” (SmithKline Beecham Corporation, priority 1998, published 2003)
